Laboratory results taken from patent US11352352B2, “Aminopyrimidine compound, preparation method therefor and use thereof” (BEIJING ADAMADLE BIOTECHNOLOGY LIMITED LIABILITY COMPANY, priority 2017, dated 2022).

Experiments:
Test in all cases: Cell proliferation inhibition experiment, CellTiter-Glo (CTG) method
Assay type in all cases: cell-based
A-431 = A-431 cells, 3 days
In short: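 Cells seeded overnight at 37 °C, 5% CO2, then treated with nine 3-fold dilutions in triplicate, top 30 μM for A-431 and 1.111 μM for NCI-H1975 and PC-9; solvent control. After 3 days, viability read by CellTiter-Glo luminescence; IC50 from non-linear sigmoidal fit of survival rate.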

NCI-H1975 = details: for IC50: Homo sapiens, NCI-H1975, 72 h, NCI-H1975 cells, CTG, 3 days; for A-431/NCI-H1975 Selectivity: ratio of A-431 IC50 to NCI-H1975 IC50
In short: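 NCI-H1975 cells with viability above 90% by trypan blue were seeded at 90 μL per well in black 96-well plates and incubated overnight at 37° C., 5% CO2. Compounds were added at nine concentrations in triplicate, and viability was measured with CellTiter-Glo luminescence on EnVision. IC50 came from non-linear S-curve fitting in GraphPad Prism 5.0.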

PC-9 = PC-9 cells, 3 days
In short: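 Cells in log-phase growth (viability above 90% by trypan blue) were seeded at 90 μL per well in black-walled, clear-bottom 96-well plates and incubated overnight at 37° C., 5% CO2. A T0 plate was read the next day. Test compounds were added at nine concentrations in triplicate with a solvent control. Viability was measured by CellTiter-Glo luminescence on EnVision, and IC50 came from non-linear S-curve fitting in GraphPad Prism 5.0.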

Row | SMILES | IC50 (A-431; Homo sapiens, A-431, 72 h) [nM] | IC50 (NCI-H1975) [nM] | A-431/NCI-H1975 Selectivity (NCI-H1975) | IC50 (PC-9; Homo sapiens, PC-9, 72 h) [nM] | IC50 (A-431) [nM] | IC50 (PC-9) [nM]
1 | C=CC(=O)Nc1cc(Nc2cc(-c3ccc4c(cnn4C)c3)ncn2)c(OC(F)F)cc1NCCN(C)C [compound 122] | 580 | 5.2 | 111.5 | 11.6 |  | 
2 | C=CC(=O)Nc1cc(Nc2cc(-c3ccc4c(cnn4C)c3)ncn2)c(OCC)cc1NCCN(C)C [compound 123] | 698 | 13.7 | 51.0 | 15.5 |  | 
3 | C=CC(=O)Nc1cc(Nc2cc(-c3ccc4ncsc4c3)ncn2)c(OC)cc1N(C)CCN1CCN(C)CC1 [compound 124] | 1470 | 35.2 | 41.7 | 32.3 |  | 
4 | C=CC(=O)Nc1cc(Nc2cc(-c3ccc4c(cnn4C)c3)ncn2)c(OC)cc1N(C)CCN1C[C@@H](C)N(C)[C@@H](C)C1 [compound 125] | 1580 | 32.1 | 49.2 | 22.1 |  | 
5 | C=CC(=O)Nc1cc(Nc2cc(-c3ccc4ncsc4c3)ncn2)c(OC)cc1N(C)CCN1C[C@@H](C)N(C)[C@@H](C)C1 [compound 126] | 2010 | 85 | 23.7 | 64.1 |  | 
6 | C=CC(=O)Nc1cc(Nc2cc(-c3ccc4c(cnn4C)c3)ncn2)c(OC)cc1N(C)CCN1CCN(C2CC2)CC1 [compound 127] | 2300 | 45.1 | 51.0 | 163 |  | 
7 | C=CC(=O)Nc1cc(Nc2cc(-c3ccc4ncsc4c3)ncn2)c(OC)cc1N(C)CCN1CCN(C2CC2)CC1 [compound 128] | 1370 | 103 | 13.2 | 70.7 |  | 
8 | C=CC(=O)Nc1cc(Nc2cc(-c3ccc4c(c3)ncn4C)ncn2)c(OC)cc1N(C)CCN1CCN(C(C)=O)CC1 [compound 130] | 2310 | 56.6 | 40.9 | 43.2 |  | 
9 | C=CC(=O)Nc1cc(Nc2cc(-c3ccc4c(c3)ncn4C)ncn2)c(OC)cc1OCCN1CCN(C)CC1 [compound 132] | 2040 | 42.3 | 48.3 | 118 |  | 
10 | C=CC(=O)Nc1cc(Nc2cc(-c3ccc4c(cnn4C)c3)ncn2)c(OC)cc1N1CCN(C2CCN(C)CC2)CC1 [compound 133] | 598 | 9.9 | 60.4 | 10.7 |  | 
11 | C=CC(=O)Nc1cc(Nc2cc(-c3ccc4c(cnn4C)c3)ncn2)c(OC)cc1N1CCN(C2CCN(C(C)=O)CC2)CC1 [compound 134] | 1430 | 33.8 | 42.4 | 31.1 |  | 
12 | C=CC(=O)Nc1cc(Nc2cc(-c3ccc4c(cnn4C)c3)ncn2)c(OC)cc1N1CCN(C(=O)CN(C)C)CC1 [compound 135] | 756 | 15.4 |  | 17.7 |  | 
13 | C=CC(=O)Nc1cc(Nc2cc(-c3ccc4c(cnn4C)c3)ncn2)c(OC)cc1N1CCN(CC(=O)N(C)C)CC1 [compound 136] | 2300 | 56.2 | 41.1 | 45.6 |  | 
14 | C=CC(=O)Nc1cc(Nc2cc(-c3ccc4c(cnn4C)c3)ncn2)c(OC)cc1N1CCC(N(CC)CC)CC1 [compound 137] | 597 | 4.8 |  | 7.6 |  | 
15 | C=CC(=O)Nc1cc(Nc2cc(-c3ccc4c(cnn4C)c3)ncn2)c(OCC)cc1N(C)CCN(C)C(C)C [compound 139] | 1160 | 43.1 | 26.8 | 57.9 |  | 
16 | C=CC(=O)Nc1cc(Nc2cc(-c3ccc4c(cnn4C)c3)ncn2)c(OCC)cc1N(C)CCN(C)CC [compound 140] | 987 | 11.7 | 84.4 | 13.8 |  | 
17 | C=CC(=O)Nc1cc(Nc2cc(-c3ccc4c(cnn4C)c3)ncn2)c(OC(F)F)cc1N(C)CCN(C)CC [compound 141] | 539 | 8.4 | 64.2 | 23.1 |  | 
18 | C=CC(=O)Nc1cc(Nc2cc(-c3ccc4c(cnn4C)c3)ncn2)c(OC)cc1N(C)C1CCN(C(C)C)CC1 [compound 142] | 968 | 24.5 | 39.5 | 32.6 |  | 
19 | C=CC(=O)Nc1cc(Nc2cc(-c3ccc4c(cnn4C)c3)ncn2)c(OC)cc1N1CCN(C2CC2)CC1 [compound 143] | 988 | 51.6 | 19.2 | 23.5 |  | 
20 | C=CC(=O)Nc1cc(Nc2cc(-c3ccc4c(cnn4C)c3)ncn2)c(OC(F)F)cc1N1CCN(CCOC)CC1 [compound 145] | 1460 | 37.1 | 39.3 | 33.7 |  | 
21 | C=CC(=O)Nc1cc(Nc2cc(-c3ccc4c(cnn4C)c3)ncn2)c(OC(F)F)cc1N1CCC(N2C[C@@H](C)N(C)[C@@H](C)C2)CC1 [compound 146] | 800 | 10.2 | 78.5 | 14.9 |  | 
22 | C=CC(=O)Nc1cc(Nc2cc(-c3ccc4c(cnn4C)c3)ncn2)c(OC(F)F)cc1N1CCC(N2CCN(C(C)C)CC2)CC1 [compound 147] | 978 | 18.4 | 53.2 | 24.7 |  | 
23 | C=CC(=O)Nc1cc(Nc2cc(-c3ccc4c(cnn4C)c3)ncn2)c(OC(F)F)cc1N1CCC(N2C[C@@H](C)O[C@@H](C)C2)CC1 [compound 148] | 1350 | 28.7 | 46.9 | 31.9 |  | 
24 | C=CC(=O)Nc1cc(Nc2cc(-c3ccc4c(cnn4C)c3)ncn2)c(OC(F)F)cc1N1CCN(CC2CC2)CC1 [compound 149] | 1370 | 28.4 | 48.2 | 674 |  | 
25 | C=CC(=O)Nc1cc(Nc2cc(-c3ccc4c(cnn4C)c3)ncn2)c(OC(F)F)cc1N1CCC(N2CCCC2)CC1 [compound 150] | 543 | 5.3 | 102.5 | 19.3 |  | 
26 | C=CC(=O)Nc1cc(Nc2cc(-c3ccc4c(cnn4C)c3)ncn2)c(OC(F)(F)F)cc1N(C)CCN(C)C [compound 151] | 2050 | 58.9 | 34.7 | 79.9 |  | 
27 | C=CC(=O)Nc1cc(Nc2cc(-c3ccc4c(cnn4C)c3)ncn2)c(OC)cc1N1CCC(N2CCOCC2)CC1 [compound 152] |  | 23.6 | 83.3 |  | 1970 | 43.2
28 | C=CC(=O)Nc1cc(Nc2cc(-c3ccc4c(cnn4C)c3)ncn2)c(OC(F)F)cc1N1CCN(C2CCOCC2)CC1 [compound 153] | 1320 | 25 | 53.0 | 35.1 |  | 
29 | C=CC(=O)Nc1cc(Nc2cc(-c3ccc4cnn(C)c4c3)ncn2)c(OC)cc1N1C[C@@H](C)N(C)[C@@H](C)C1 [compound 154] | 1400 | 34.7 |  | 36.4 |  | 
30 | C=CC(=O)Nc1cc(Nc2cc(-c3ccc4cnn(C)c4c3)ncn2)c(OC)cc1N1CCC(N2C[C@@H](C)N(C)[C@@H](C)C2)CC1 [compound 156] | 1240 | 25.1 | 49.5 | 2.7 |  | 
